Source: article PMC4891385 (Clinical Drug Investigation, 2016)

Tests used:
OAT1 = target: T1, OAT1 (Homo sapiens, UniProt Q4U2R8); experiment: [14C]-lesinurad uptake, substrate test, OAT1 oocytes; format: in vitro ADME
T1 sequence (Q4U2R8 1-563): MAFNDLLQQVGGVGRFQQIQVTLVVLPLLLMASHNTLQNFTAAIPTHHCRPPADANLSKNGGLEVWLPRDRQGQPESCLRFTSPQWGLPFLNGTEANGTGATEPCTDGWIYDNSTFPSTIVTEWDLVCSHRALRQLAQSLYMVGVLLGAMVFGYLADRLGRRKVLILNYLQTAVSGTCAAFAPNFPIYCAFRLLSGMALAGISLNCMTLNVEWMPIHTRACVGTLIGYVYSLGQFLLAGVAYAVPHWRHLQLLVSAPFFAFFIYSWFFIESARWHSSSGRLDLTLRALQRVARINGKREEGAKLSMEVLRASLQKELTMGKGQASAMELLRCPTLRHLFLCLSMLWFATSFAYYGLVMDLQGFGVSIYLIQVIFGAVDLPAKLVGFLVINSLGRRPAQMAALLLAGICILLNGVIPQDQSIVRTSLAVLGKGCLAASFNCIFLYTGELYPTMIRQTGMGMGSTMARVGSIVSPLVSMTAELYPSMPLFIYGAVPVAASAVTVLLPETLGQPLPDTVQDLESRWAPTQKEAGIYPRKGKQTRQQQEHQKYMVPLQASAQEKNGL

OATP1B3 = target: T2, OATP1B3 (Homo sapiens, UniProt Q9NPD5); experiment: [14C]-lesinurad uptake, substrate test, hOATP1B3 MDCK-II cells; format: in vitro ADME
T2 sequence (Q9NPD5 1-702): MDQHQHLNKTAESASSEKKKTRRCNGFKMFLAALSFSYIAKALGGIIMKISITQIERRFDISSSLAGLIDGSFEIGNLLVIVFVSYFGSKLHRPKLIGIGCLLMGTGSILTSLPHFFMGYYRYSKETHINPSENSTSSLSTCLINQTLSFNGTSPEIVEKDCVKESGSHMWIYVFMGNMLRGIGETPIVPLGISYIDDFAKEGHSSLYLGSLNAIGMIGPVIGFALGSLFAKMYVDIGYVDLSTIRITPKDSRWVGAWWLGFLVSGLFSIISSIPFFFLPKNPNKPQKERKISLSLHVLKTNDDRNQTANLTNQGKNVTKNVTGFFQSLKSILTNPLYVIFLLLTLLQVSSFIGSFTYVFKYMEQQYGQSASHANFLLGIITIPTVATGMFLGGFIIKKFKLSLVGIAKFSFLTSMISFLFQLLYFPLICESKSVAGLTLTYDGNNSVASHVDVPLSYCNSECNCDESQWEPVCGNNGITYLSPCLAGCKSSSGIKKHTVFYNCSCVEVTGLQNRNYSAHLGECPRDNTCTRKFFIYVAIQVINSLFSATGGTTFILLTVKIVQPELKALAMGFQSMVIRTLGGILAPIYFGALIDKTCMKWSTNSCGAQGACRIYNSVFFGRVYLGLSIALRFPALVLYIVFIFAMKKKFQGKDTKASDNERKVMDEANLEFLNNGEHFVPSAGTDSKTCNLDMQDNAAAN

P-gp = P-gp (Homo sapiens, UniProt P08183); experiment: [14C]-lesinurad substrate test, MDCK-MDR1 cells; format: in vitro ADME
P-gp, sequence (P08183 whole entry): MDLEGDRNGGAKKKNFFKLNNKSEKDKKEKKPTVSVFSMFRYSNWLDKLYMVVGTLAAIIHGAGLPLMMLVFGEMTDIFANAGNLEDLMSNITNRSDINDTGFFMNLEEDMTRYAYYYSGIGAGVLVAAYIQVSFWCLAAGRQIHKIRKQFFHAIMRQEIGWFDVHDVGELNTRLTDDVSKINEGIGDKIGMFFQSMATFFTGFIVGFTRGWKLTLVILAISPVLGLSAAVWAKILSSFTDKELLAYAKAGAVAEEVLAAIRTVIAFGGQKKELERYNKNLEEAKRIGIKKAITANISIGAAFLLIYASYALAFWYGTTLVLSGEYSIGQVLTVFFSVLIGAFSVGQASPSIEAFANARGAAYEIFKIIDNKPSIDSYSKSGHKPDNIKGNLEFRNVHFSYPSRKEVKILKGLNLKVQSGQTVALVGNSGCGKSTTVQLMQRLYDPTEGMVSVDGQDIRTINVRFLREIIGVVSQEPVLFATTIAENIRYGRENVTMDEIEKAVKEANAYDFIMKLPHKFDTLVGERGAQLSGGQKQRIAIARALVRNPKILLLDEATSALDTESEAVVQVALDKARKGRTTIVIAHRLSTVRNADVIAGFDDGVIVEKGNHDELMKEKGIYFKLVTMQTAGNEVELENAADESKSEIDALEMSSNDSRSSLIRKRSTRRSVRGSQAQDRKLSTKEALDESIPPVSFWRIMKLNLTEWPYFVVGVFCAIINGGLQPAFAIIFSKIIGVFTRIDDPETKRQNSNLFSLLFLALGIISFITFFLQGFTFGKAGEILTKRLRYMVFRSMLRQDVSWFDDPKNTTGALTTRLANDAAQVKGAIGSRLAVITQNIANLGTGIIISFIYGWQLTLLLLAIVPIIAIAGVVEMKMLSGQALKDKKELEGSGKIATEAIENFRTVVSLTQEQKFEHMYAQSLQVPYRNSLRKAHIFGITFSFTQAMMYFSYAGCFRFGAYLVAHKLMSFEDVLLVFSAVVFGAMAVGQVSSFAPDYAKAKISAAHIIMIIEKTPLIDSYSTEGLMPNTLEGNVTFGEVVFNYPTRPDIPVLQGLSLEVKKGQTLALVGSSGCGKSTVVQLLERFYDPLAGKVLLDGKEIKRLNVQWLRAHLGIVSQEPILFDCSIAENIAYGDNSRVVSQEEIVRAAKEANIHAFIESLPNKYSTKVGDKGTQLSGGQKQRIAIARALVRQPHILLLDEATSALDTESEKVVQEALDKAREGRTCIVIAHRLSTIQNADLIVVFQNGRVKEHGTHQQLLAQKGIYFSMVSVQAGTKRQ

OCT2 = target: T3, OCT2 (Homo sapiens, UniProt O15244); experiment: [14C]-lesinurad uptake, substrate test, hOCT2 MDCK-II cells; format: in vitro ADME
T3 sequence (O15244 1-555): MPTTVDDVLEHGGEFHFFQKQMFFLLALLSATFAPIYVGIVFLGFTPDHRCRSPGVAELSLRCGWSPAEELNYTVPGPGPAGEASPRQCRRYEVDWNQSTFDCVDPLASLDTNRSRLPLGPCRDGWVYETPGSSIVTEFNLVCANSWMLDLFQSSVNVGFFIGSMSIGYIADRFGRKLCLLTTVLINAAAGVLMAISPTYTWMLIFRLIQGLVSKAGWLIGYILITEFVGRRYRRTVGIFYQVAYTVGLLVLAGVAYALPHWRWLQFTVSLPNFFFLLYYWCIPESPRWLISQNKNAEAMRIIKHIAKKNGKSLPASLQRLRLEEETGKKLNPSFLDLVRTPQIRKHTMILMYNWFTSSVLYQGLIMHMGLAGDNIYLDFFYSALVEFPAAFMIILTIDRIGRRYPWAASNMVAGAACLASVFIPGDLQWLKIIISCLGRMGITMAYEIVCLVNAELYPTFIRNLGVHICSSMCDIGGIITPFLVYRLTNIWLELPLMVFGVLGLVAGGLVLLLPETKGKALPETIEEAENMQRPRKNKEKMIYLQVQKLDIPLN

[1] = no reference given; cited from earlier work

Lesinurad as substrate (OAT1): substrate | Lesinurad as substrate (OATP1B3): not a substrate | Lesinurad as substrate (P-gp): not a substrate | Lesinurad as substrate (OCT2): not a substrate
Compound: O=C(O)CSc1nnc(Br)n1-c1ccc(C2CC2)c2ccccc12 [lesinurad]
accumulation during multiple once-daily dosing [1]: does not accumulate
